Measured values as given in PubChem BioAssay (NCI).
“And” between values parts separate entries of the source, which are not always exact repeats. Equal entries are not always repeated.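 Growth conditions: 96-well plates. Treatment: test compound, 48 hours, 5 concentrations. Analysis: linear interpolation between bracketing concentrations; unreached endpoints set to highest concentration. GI50 is the concentration that inhibits growth by half. At the TGI there is no net growth.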

Tests used:
Experiment in all cases: NCI anticancer screen, dose series, 48 h
[1] = test system: A498 renal
[2] = test system: HL-60(TB) leukemia
[3] = test system: HOP-92 NSCLC
[4] = test system: M14 melanoma
[5] = test system: MALME-3M melanoma
[6] = test system: NCI-H23 lung
[7] = test system: SNB-75 CNS
[8] = test system: SW-620 colon
[9] = test system: UACC-257 melanoma
[10] = test system: UO-31 renal

SMILES	GI50 [1]	GI50 [2]	TGI [2]	GI50 [3]	TGI [3]	GI50 [4]	GI50 [5]	GI50 [6]	GI50 [7]	GI50 [8]	GI50 [9]	TGI [9]	GI50 [10]	TGI [1]	TGI [4]	TGI [5]	TGI [6]	TGI [7]	TGI [8]	TGI [10]
COC(C(=O)C(O)C(C)O)C1Cc2cc3cc(OC4CC(OC5CC(O)C(O)C(C)O5)C(O)C(C)O4)c(C)c(O)c3c(O)c2C(=O)C1OC1CC(OC2CC(O)C(OC3CC(C)(O)C(O)C(C)O3)C(C)O2)C(O)C(C)O1 (configuration not stated)	11.2 ng/mL and 0.0278 ng/mL	2.27 ng/mL	188 ng/mL	11.2 ng/mL and 3.21 ng/mL	80 ng/mL and 82 ng/mL	47 ng/mL and 29.3 ng/mL	11.2 ng/mL and 0.642 ng/mL	11.2 ng/mL and 0.748 ng/mL	11.2 ng/mL and 0.782 ng/mL	12.1 ng/mL and 2.36 ng/mL	12.2 ng/mL and 1.15 ng/mL	59.8 ng/mL and 27 ng/mL	72.5 ng/mL and 3.56 ng/mL							
CCOc1ccc2c(C)cc(=O)oc2c1			> 100 µM		> 100 µM							> 100 µM		> 100 µM	> 100 µM	> 100 µM	> 100 µM	> 100 µM	> 100 µM	> 100 µM
Cn1c2ccccc2c(=O)c2c(O)cc3c(c21)CC(C1(C)CO1)O3 (configuration not stated)			2.32 µM		30.8 µM							13.1 µM		33.9 µM	2.93 µM	28.4 µM	4.14 µM	24 µM	3.38 µM	4.09 µM
C=C1COC(O)(C2OCOC(C3CC(=O)NC(=O)C3)C2O)C1C (configuration not stated)		0.00217 µM	0.0123 µM	0.00585 µM and 0.0117 µM	0.0354 µM and 0.045 µM	0.00323 µM	0.00285 µM	0.00267 µM	0.00332 µM	0.00288 µM	0.004 µM and 0.0126 µM	0.0278 µM and 0.0453 µM	0.00204 µM	0.0052 µM and 0.00554 µM	0.017 µM and 0.0232 µM	0.0154 µM and 0.0364 µM	0.0144 µM and 0.0338 µM	0.0336 µM and 0.0195 µM	0.042 µM and 0.142 µM	0.0278 µM and 0.0215 µM
O=S(=O)(c1ccc(Br)cc1)N1CCN(S(=O)(=O)c2ccc(Br)cc2)CC1			> 100 µM		> 100 µM							> 100 µM		> 100 µM	> 100 µM	> 100 µM	> 100 µM	> 100 µM	> 100 µM	> 100 µM
CCCCCCC/C=C/[C@H]1O[C@]2(O)C(=O)C=C3C[C@@H](O[C@@H]4O[C@H](CO)[C@@H](O)C(O)[C@@H]4O)C[C@@H]3[C@H]2C=C1C (some centres not stated)	4.41 µM	0.812 µM	4.05 µM	3.3 µM	11.3 µM	1.58 µM	4.8 µM	4.96 µM	1.24 µM	1.14 µM	2.98 µM	7.59 µM	0.666 µM	9.13 µM	6.35 µM	10.3 µM	13 µM	5.93 µM	5.49 µM	2.36 µM
CC(C)(CCN=C(N)Nc1ccccn1)c1ccc(C(F)(F)F)cc1	14.9 µM	17.1 µM	36 µM	13.3 µM	27.6 µM	14 µM	14.3 µM	12.7 µM	12.9 µM	16.1 µM	18 µM	32.8 µM	10.7 µM	28.8 µM	29.6 µM	29.6 µM	27.6 µM	33.8 µM	34 µM	22.7 µM
COc1cc2nc(-c3ccc(Cl)cc3)cc(OCCCN3CCCC3)c2cc1OC	2.19 µM	2.72 µM	8.33 µM	0.85 µM	5.43 µM	0.402 µM	1.68 µM	2.45 µM	1.73 µM	3.12 µM	1.96 µM	4.87 µM	1.72 µM	5.19 µM	1.51 µM	4.52 µM	12.1 µM	5.09 µM	13.1 µM	6.63 µM
COc1ccc2c(Cc3c4ccccc4cc4ccccc34)cncc2c1O			8.36 µM		13.2 µM							14 µM		23.9 µM	15.3 µM	55 µM	85.3 µM	29.4 µM	> 100 µM	34.9 µM
CSc1ccc(OCC2OC2O)cc1 (configuration not stated)			> 83.5 µM		> 100 µM							> 100 µM		> 100 µM	> 100 µM	> 100 µM	> 100 µM	> 100 µM	> 30.7 µM	> 100 µM
c1cc(CSSCc2ccncc2)ccn1			42.4 µM		> 100 µM							> 100 µM		> 100 µM	> 82.6 µM	> 100 µM	> 93.2 µM	> 100 µM	> 100 µM	> 100 µM
NCCCCCCCCCCCn1c2c(c3ccccc3c1=O)C(=O)c1ccccc1-2	12.4 µM	6.28 µM	20.4 µM	2.65 µM	7.05 µM	5.92 µM	16.7 µM	11.6 µM	2.95 µM	1.96 µM	27.7 µM	63.7 µM	2.01 µM	36.3 µM	25.7 µM	53.6 µM	32 µM	7.68 µM	3.76 µM	4.07 µM
